The values that follow come from patent publication EP3046573B1, “AMYLIN ANALOGUES” (Zealand Pharma A/S, priority 2013, dated 2015).

Usually CL/F stands for the apparent clearance, not corrected for the fraction that reaches the circulation.

The structures appear in SMILES notation. Numbered stars: 1 amine (or outer) side, 2 acyl side, 3 side chain; on linkers, the order of the positions; unused ones are H or OH. Bridge positions count the residues as written; N and C are the ends. Square brackets hold non-standard residues; d marks the D form. Peptide text beside a SMILES is read from it. * marks the point of attachment. C20 diacid = O=C(O)CCCCCCCCCCCCCCCCCCC(=O)*; γGlu = O=C(O)[C@H](CCC(=O)[*:2])N[*:1]; Hyp = O=C(O)[C@@H]1C[C@@H](O)CN1; NMeI = CC[C@H](C)[C@H](NC)C(=O)O; Sar = CNCC(=O)O

Series [1] in a line: Assessment of chemical stability: normalized purity by RP-HPLC after incubation at 40 °C. Format: physicochemical. To be noted: normalized purity (T=0 set to 100), 0.2 mg/ml. The procedure: Samples of each test peptide were dissolved in MilliQ™ water, and the pH of the solution was adjusted to pH 4, pH 7.5 or pH 9, respectively, using either HCI or NaOH. The final peptide concentration was 0.2 mg/ml. Samples were placed in glass vials and incubated at 40 °C. The samples were analyzed by RP-HPLC on a C8 column with gradient elution using an ammonium formate/water eluent system, or on a C18 column with gradient elution using a trifluoroacetic acid/water eluent system. The area-percentage (area-%) of the main peak after incubation time T = t (relative to time T = 0) was determined by UV spectroscopy at 220 nm.
The purity was first determined as follows: Purity(area−%) = (area of main peak/total area of all peaks) × 100. [formula]
The purity was then normalized between time points by setting purity at time 0 (T=0) to 100 for each pH value for a given peptide, as follows: Normalised area−%at time t(T = t) = [area−%(T = t)/area−%(T = 0)] × 100. [formula]
The normalized purity values in Table 2 were determined after 7 days of incubation. Table 2. EC50, chemical stability and fibrillation data for compounds of the invention

The nature of series [2]: Pharmacokinetic (PK) profiling in rats. Format: in vivo. To be noted: male, Sprague Dawley, rat, plasma, single sc bolus, 100 nmol/kg (18, NN96), 20 nmol/kg (72, 76), 30 nmol/kg (73, 82, 118, 162, 166, 172); for CL/F: apparent clearance; for half-life: terminal elimination half-life, read-out: t½ (converted). As to the method:
Sprague Dawley male rats were given a single subcutaneous (sc) bolus of each peptide to be tested at doses as specified below..
Study A: Following the administration of a 100 nmol/kg dose of a test peptide of the invention (Compound 18) and a comparison pramlintide analogue NN96 (see Example 5, above), respectively, blood samples were drawn from the tail vein at 0.5, 3, 8, 15, 36, 60 and 81 hours post-dosing. 4 rats were used (2 rats per compound). The rats were euthanized immediately after the last blood sampling by overdose of O2/CO2.
Study B: 20 nmol/kg doses of Compound 72 and Compound 76, respectively, of the invention were administered. Blood samples were drawn by sublingual bleeding prior to dosing and at 2, 6, 12, 24, 48, 72 and 96 hours after dosing. 4 rats were used (2 rats per compound). The rats were euthanized immediately after the last blood sampling by overdose of O2/CO2.
Study C: 30 nmol/kg doses of Compound 73, Compound 82 and Compound 118, respectively, of the invention were administered. Blood samples were drawn from the tail vein prior to dosing and at 24, 48, 72 and 96 hours after dosing. Blood samples were taken from two rats at each time point, and only 2 blood samples were drawn from each rat, i.e. 8 rats were used for each compound. The rats were euthanized immediately after the last blood sampling by concussion and cervical dislocation.
Study D: 30 nmol/kg doses of Compound 162, Compound 166 and Compound 172 were administered. Blood samples were drawn from the tail vein prior to dosing and at 24, 48, 72, 96 and 168 hours after dosing. Blood samples were taken from two rats at each time point, and only 2 blood samples were drawn from each rat, i.e. 10 rats were used for each compound. The rats were euthanized immediately after the last blood sampling by concussion and cervical dislocation.
The dosing vehicle used for each test peptide was a mannitol-containing histidine buffer (pH 7.0). Plasma samples were analyzed after precipitation with ethanol by liquid chromatography mass spectrometry (LC-MS/MS). Mean plasma concentrations were used for calculation of the pharmacokinetic parameters using the non-compartmental approach in Phoenix WinNonlin 6.3.
Plasma terminal elimination half-life (t½) was determined as In(2)/λz, where λz is the magnitude of the slope of the log linear regression of the log concentration versus time profile during the terminal phase. Apparent clearance (CL/F) was determined as dose/AUCinf (sc), where AUCinf is the area under the plasma concentration vs. time curve extrapolated to infinity (AUCinf = AUClast + Clast/λz, where Clast is the last observed plasma concentration).

On to `CC[C@H](C)[C@@H](C(=O)N[C@@H](CC(C)C)C(=O)N[C@H](CO)C(=O)N[C@@H](CO)C(=O)N[C@H](C(=O)N[C@@H](CC(N)=O)C(=O)N[C@H](C(=O)NCC(=O)N[C@@H](CO)C(=O)N[C@@H](CC(N)=O)C(=O)N[C@H](C(=O)N1CCC[C@H]1C(N)=O)[C@@H](C)O)C(C)C)[C@@H](C)O)N(C)C(=O)[C@H](C)NC(=O)CN(C)C(=O)[C@@H](Cc1ccccc1)NC(=O)[C@H](CC(N)=O)NC(=O)[C@H](CC(N)=O)NC(=O)[C@H](CO)NC(=O)[C@H](CO)NC(=O)[C@H](CCCNC(=N)N)NC(=O)[C@H](Cc1c[nH]cn1)NC(=O)[C@H](CC(C)C)NC(=O)[C@H](Cc1ccccc1)NC(=O)[C@H](CCC(=O)O)NC(=O)[C@H](C)NC(=O)[C@H](CC(C)C)NC(=O)[C@H](CCCNC(=N)N)NC(=O)[C@H](CCC(N)=O)NC(=O)[C@@H](NC(=O)[C@H](C)NC(=O)[C@@H]1CSSC[C@H](NC(=O)[C@H](CCCCN)NC(=O)CC[C@H](NC(=O)CCCCCCCCCCCCCCCCCCC(=O)O)C(=O)O)C(=O)N[C@@H](CC(N)=O)C(=O)N[C@@H]([C@@H](C)O)C(=O)N[C@@H](C)C(=O)N[C@@H]([C@@H](C)O)C(=O)N1)[C@@H](C)O` [Compound 72, [19CD]-isoGlu-KC()NTATC()ATQRLAEFLHRSSNN-DPhe-Gly(Me)-A-Ile(Me)-L-DSer-STNVGSNTP] ({C20 diacid-γGlu}-KCNTATCATQRLAEFLHRSSNN[dF][Sar]A[NMeI]L[dS]STNVGSNTP-NH2; disulfide 2-7), for which the “Chem. stability; 7 days, 40°C pH 4” value in series [1] (pH 4, 7 days) was found to be 90 area-%. Further, the “Chem. stability; 7 days, 40°C pH 7.5” value in series [1] (pH 7.5, 7 days) was found to be 81 area-%. Also, the “Chem. stability; 7 days, 40°C pH 9” value in series [1] (pH 9, 7 days) is given as 80 area-%. Besides, in series [2], the CL/F was 2.7 mL/h/kg and the half-life was 30.9 h.
On to `CC[C@H](C)[C@@H](C(=O)N[C@@H](CC(C)C)C(=O)N[C@@H](CO)C(=O)N[C@@H](CO)C(=O)N[C@H](C(=O)N[C@@H](CCC(=O)O)C(=O)N[C@H](C(=O)NCC(=O)N[C@@H](CO)C(=O)N[C@@H](CCC(=O)O)C(=O)N[C@H](C(=O)N1C[C@H](O)C[C@H]1C(N)=O)[C@@H](C)O)C(C)C)[C@@H](C)O)N(C)C(=O)[C@H](C)NC(=O)CN(C)C(=O)[C@H](Cc1ccccc1)NC(=O)[C@H](CO)NC(=O)[C@H](CO)NC(=O)[C@H](CCCNC(=N)N)NC(=O)[C@H](Cc1c[nH]cn1)NC(=O)[C@H](CC(C)C)NC(=O)[C@H](Cc1ccccc1)NC(=O)[C@H](CCC(=O)O)NC(=O)[C@H](C)NC(=O)[C@H](CC(C)C)NC(=O)[C@H](CCCNC(=N)N)NC(=O)[C@H](CCC(=O)O)NC(=O)[C@@H](NC(=O)[C@H](C)NC(=O)[C@@H]1CSSC[C@H](NC(=O)[C@H](CCCNC(=N)N)NC(=O)CC[C@H](NC(=O)CCCCCCCCCCCCCCCCCCC(=O)O)C(=O)O)C(=O)NCC(=O)N[C@@H]([C@@H](C)O)C(=O)N[C@@H](C)C(=O)N[C@@H]([C@@H](C)O)C(=O)N1)[C@@H](C)O` [Compound 166, [19CD]-isoGlu-RC()GTATC()ATERLAEFLHRSSF-Gly(Me)-A-Ile(Me)-LSSTEVGSET-Hyp-NH2] ({C20 diacid-γGlu}-RCGTATCATERLAEFLHRSSF[Sar]A[NMeI]LSSTEVGSET[Hyp]-NH2; disulfide 2-7), for which, in series [2], the CL/F is 3.79 mL/h/kg and the half-life was 27.9 h.
As to `CC[C@H](C)[C@@H](C(=O)N[C@@H](CC(C)C)C(=O)N[C@@H](CO)C(=O)N[C@@H](CO)C(=O)N[C@H](C(=O)N[C@@H](CC(=O)O)C(=O)N[C@H](C(=O)NCC(=O)N[C@@H](CO)C(=O)N[C@@H](CC(=O)O)C(=O)N[C@H](C(=O)N1CCC[C@H]1C(N)=O)[C@@H](C)O)C(C)C)[C@@H](C)O)N(C)C(=O)[C@H](C)NC(=O)CN(C)C(=O)[C@H](Cc1ccccc1)NC(=O)[C@H](CO)NC(=O)[C@H](CO)NC(=O)[C@H](CCCNC(=N)N)NC(=O)[C@H](Cc1c[nH]cn1)NC(=O)[C@H](CC(C)C)NC(=O)[C@H](Cc1ccccc1)NC(=O)[C@H](CCC(=O)O)NC(=O)[C@H](C)NC(=O)[C@H](CC(C)C)NC(=O)[C@H](CCCNC(=N)N)NC(=O)[C@H](CC(=O)O)NC(=O)[C@@H](NC(=O)[C@H](C)NC(=O)[C@@H]1CSSC[C@H](NC(=O)[C@H](CCCNC(=N)N)NC(=O)CC[C@H](NC(=O)CCCCCCCCCCCCCCCCCCC(=O)O)C(=O)O)C(=O)N2CCC[C@H]2C(=O)N[C@@H]([C@@H](C)O)C(=O)N[C@@H](C)C(=O)N[C@@H]([C@@H](C)O)C(=O)N1)[C@@H](C)O` [Compound 172, [19CD]-isoGlu-RC()PTATC()ATDRLAEFLHRSSF-Gly(Me)-A-Ile(Me)-LSSTDVGSDTP-NH2] ({C20 diacid-γGlu}-RCPTATCATDRLAEFLHRSSF[Sar]A[NMeI]LSSTDVGSDTP-NH2; disulfide 2-7), in series [2], the CL/F is 9.16 mL/h/kg and the half-life was 24.4 h.
Take `CC[C@H](C)[C@H](NC(=O)[C@@H]1CCCN1C(=O)CNC(=O)[C@H](Cc1ccccc1)NC(=O)[C@H](CC(N)=O)NC(=O)[C@H](CC(N)=O)NC(=O)[C@H](CO)NC(=O)[C@H](CO)NC(=O)[C@H](Cc1c[nH]cn1)NC(=O)[C@H](Cc1c[nH]cn1)NC(=O)[C@H](CC(C)C)NC(=O)[C@H](Cc1ccccc1)NC(=O)[C@H](CCC(=O)O)NC(=O)[C@H](C)NC(=O)[C@H](CC(C)C)NC(=O)[C@H](CCCNC(=N)N)NC(=O)[C@H](CCC(N)=O)NC(=O)[C@@H](NC(=O)[C@H](C)NC(=O)[C@@H]1CSSC[C@H](NC(=O)[C@H](CCCNC(=N)N)NC(=O)CC[C@H](NC(=O)CCCCCCCCCCCCCCCCCCC(=O)O)C(=O)O)C(=O)N[C@@H](CC(N)=O)C(=O)N[C@@H]([C@@H](C)O)C(=O)N[C@@H](C)C(=O)N[C@@H]([C@@H](C)O)C(=O)N1)[C@@H](C)O)C(=O)N[C@@H](CC(C)C)C(=O)N1CCC[C@H]1C(=O)N1CCC[C@H]1C(=O)N[C@H](C(=O)N[C@@H](CC(N)=O)C(=O)N[C@H](C(=O)NCC(=O)N[C@@H](CO)C(=O)N[C@@H](CC(N)=O)C(=O)N[C@H](C(=O)N1CCC[C@H]1C(N)=O)[C@@H](C)O)C(C)C)[C@@H](C)O` [NN96, N-α-[(S)-4-carboxy-4-(19-carboxynonadecanoylamino)butyryl]-[Arg1,Glu14,His17,Pro37]-pramlintide, reference compound] ({C20 diacid-γGlu}-RCNTATCATQRLAEFLHHSSNNFGPILPPTNVGSNTP-NH2; disulfide 2-7): in series [2], the CL/F is 4.73 mL/h/kg and the half-life is 34.7 h.
